# Reference: US20050282755A1, “Compositions having antimicrobial activity and uses thereof” (priority 2004, published 2005)
# Starred links: 1 amine or outer side, 2 acyl side, 3 side chain; linkers in the order of their positions; H or OH if unused. Non-standard residues stand in square brackets, D forms with d. Residues, ends and D or L forms follow the SMILES beside them. *: point of attachment. Ethylenediamine = C(CN[*:2])N[*:1]; Palmitoyl = CCCCCCCCCCCCCCCC(=O)*; Lauroyl = CCCCCCCCCCCC(=O)*; Decanoyl = CCCCCCCCCC(=O)*
# Tests used:
# Type in all cases: cell-based
# [1] = test system: Candida albicans ATCC 18804; assay: MIC in yeasts, NCCLS M27-A2 broth microdilution, RPMI 1640 (Table 9, letter e); details: ATCC 18804
# How it was run: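 Plates incubated 24 to 48 hours at 37° C, with yeast seeded at 0.5×10^3–2.5×10^3 CFU/milliliter final in RPMI 1640 (glutamine, phenol red indicator). MIC was read as the lowest peptide concentration showing no visible growth.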
# [2] = test system: Escherichia coli ATCC 25922; assay: MIC, NCCLS M7-A6 broth microdilution (Table 9, no superscript); details: ATCC 25922
# How it was run: (§1)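 Log-phase bacteria were added to wells containing peptide in cation-adjusted Mueller Hinton broth at a final 5×10^5 to 1×10^6 CFU/milliliter. Plates then sat overnight at 37° C. Wells were scored visually for turbidity against a peptide-free control.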
# [3] = test system: Pseudomonas aeruginosa ATCC 27853; assay: as above; details: ATCC 27853
# How it was run: as §1
# Salmonella dublin (Lane) = assay: as above
# How it was run: as §1
# [4] = test system: Staphylococcus epidermidis ATCC 12228; assay: as above; details: ATCC 12228
# How it was run: as §1
# [5] = test system: Staphylococcus aureus ATCC 29213; assay: MIC, NCCLS M7-A6 broth microdilution, cation-adjusted Mueller Hinton broth (Table 9, no superscript); details: ATCC 29213
# How it was run: as §1
# [6] = test system: Propionibacterium acnes ATCC 6919; assay: MIC, agar dilution method NCCLS M11-A6, Brucella agar, anaerobic (Table 9, superscript c); details: ATCC 6919
# How it was run: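 MIC taken as the lowest peptide level giving no colonies on the plate. Plates were inoculated to 1.5×10^8 CFU/milliliter, then kept anaerobically at 37° C. for 48-96 hours; method follows NCCLS M11-A6.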
MIC C. albicans [1],MIC E. coli [2],MIC P. aeruginosa [3],MIC S. dublin (Salmonella dublin (Lane)),MIC S. epidermidis [4],MIC S. aureus [5],MIC P. acnes [6],SMILES
16e ug/mL,4 µg/mL,4 µg/mL,16 µg/mL,1 µg/mL,4 µg/mL,16c ug/mL,"CCCCCCCCCCCC(=O)NCCCC[C@H](NC(=O)[C@H](CCCNC(=N)N)NC(=O)[C@H](CCSC)NC(=O)[C@H](Cc1ccccc1)NC(=O)[C@H](CC(N)=O)NC(=O)[C@H](CCCNC(=N)N)NC(=O)[C@H](C)NC(=O)[C@@H](NC(=O)[C@H](CC(=O)O)NC(=O)[C@H](CCCNC(=N)N)NC(=O)[C@H](Cc1c[nH]c2ccccc12)NC(=O)[C@H](CCCNC(=N)N)NC(=O)[C@H](CO)NC(=O)[C@@H](N)CCCNC(=N)N)C(C)C)C(N)=O [Peptide 186, H2N-RSRWRDVARNFMRK(Lauryl)-NH2] (H-RSRWRDVARNFMRK(Lauroyl)-NH2)"
4e ug/mL,4 µg/mL,32 µg/mL,4 µg/mL,2 µg/mL,4 µg/mL,8c ug/mL,"CCCCCCCCCCCC(=O)N[C@H](CCCNC(=N)N)C(=O)N[C@H](CO)C(=O)N[C@H](CCCNC(=N)N)C(=O)N[C@H](CC(C)C)C(=O)N[C@H](CCCNC(=N)N)C(=O)N[C@H](CC(=O)O)C(=O)N[C@H](CC(C)C)C(=O)N[C@H](CC(C)C)C(=O)N[C@H](CCCNC(=N)N)C(=O)N[C@H](CC(N)=O)C(=O)N[C@H](CC(C)C)C(=O)N[C@H](C)C(=O)N[C@H](CCCNC(=N)N)C(N)=O [Peptide 132, Lauryl-rsrlrdllrnlar-NH2] (Lauroyl-[dR][dS][dR][dL][dR][dD][dL][dL][dR][dN][dL][dA][dR]-NH2)"
8e ug/mL,4 µg/mL,2 µg/mL,4 µg/mL,1 µg/mL,4 µg/mL,32c ug/mL,"CCCCCCCCCC(=O)NCCNC(=O)[C@H](CCCNC(=N)N)NC(=O)[C@H](CCSC)NC(=O)[C@H](Cc1ccccc1)NC(=O)[C@H](CC(N)=O)NC(=O)[C@H](CCCNC(=N)N)NC(=O)[C@H](C)NC(=O)[C@@H](NC(=O)[C@H](CC(=O)O)NC(=O)[C@H](CCCNC(=N)N)NC(=O)[C@H](Cc1c[nH]c2ccccc12)NC(=O)[C@H](CCCNC(=N)N)NC(=O)[C@H](CO)NC(=O)[C@@H](N)CCCNC(=N)N)C(C)C [Peptide 175, H2N-RSRWRDVARNFMR-Ethylamidodecanyl] (H-RSRWRDVARNFMR-{Ethylenediamine-Decanoyl}; C-terminus assumed)"
32e ug/mL,32 µg/mL,>64 µg/mL,>64 µg/mL,4 µg/mL,4 µg/mL,>64c ug/mL,"CCCCCCCCCCCC(=O)N[C@@H](CCCNC(=N)N)C(=O)N[C@@H](CO)C(=O)N[C@@H](CCCNC(=N)N)C(=O)N[C@@H](Cc1c[nH]c2ccccc12)C(=O)N[C@@H](CCCNC(=N)N)C(=O)N[C@@H](CC(=O)O)C(=O)N[C@H](C(=O)N[C@@H](C)C(=O)N[C@@H](CCCNC(=N)N)C(=O)N[C@@H](CC(N)=O)C(=O)N[C@@H](Cc1ccccc1)C(N)=O)C(C)C [Peptide 99, Lauryl-RSRWRDVARNF-NH2] (Lauroyl-RSRWRDVARNF-NH2)"
16e ug/mL,8 µg/mL,8 µg/mL,8 µg/mL,2 µg/mL,4 µg/mL,2c ug/mL,"CCCCCCCCCCCC(=O)N[C@H](CO)C(=O)N[C@H](CCCNC(=N)N)C(=O)N[C@H](Cc1c[nH]c2ccccc12)C(=O)N[C@H](CCCNC(=N)N)C(=O)N[C@H](CC(=O)O)C(=O)N[C@@H](C(=O)N[C@H](C)C(=O)N[C@H](CCCNC(=N)N)C(=O)N[C@H](CC(N)=O)C(=O)N[C@H](Cc1ccccc1)C(=O)N[C@H](CCSC)C(=O)N[C@H](CCCNC(=N)N)C(N)=O)C(C)C [Peptide 131, Lauryl-srwrdvarnfmr-NH2] (Lauroyl-[dS][dR][dW][dR][dD][dV][dA][dR][dN][dF][dM][dR]-NH2)"
16e ug/mL,8 µg/mL,64 µg/mL,8 µg/mL,8 µg/mL,8 µg/mL,32c ug/mL,"CCCCCCCCCCCC(=O)N[C@H](CCCNC(=N)N)C(=O)N[C@H](CO)C(=O)N[C@H](C)C(=O)N[C@H](Cc1c[nH]c2ccccc12)C(=O)N[C@H](CCCNC(=N)N)C(=O)N[C@H](CC(=O)O)C(=O)N[C@@H](C(=O)N[C@H](C)C(=O)N[C@H](CCCNC(=N)N)C(=O)N[C@H](CC(N)=O)C(=O)N[C@H](Cc1ccccc1)C(=O)N[C@H](CCSC)C(=O)N[C@H](CCCNC(=N)N)C(N)=O)C(C)C [Peptide 238, Lauryl-rsawrdvarnfmr-NH2] (Lauroyl-[dR][dS][dA][dW][dR][dD][dV][dA][dR][dN][dF][dM][dR]-NH2)"
16e ug/mL,8 µg/mL,8 µg/mL,16 µg/mL,2 µg/mL,4 µg/mL,8c ug/mL,"CCCCCCCCCCCC(=O)N[C@H](CCCNC(=N)N)C(=O)N[C@H](Cc1c[nH]c2ccccc12)C(=O)N[C@H](CCCNC(=N)N)C(=O)N[C@H](CC(=O)O)C(=O)N[C@@H](C(=O)N[C@H](C)C(=O)N[C@H](CCCNC(=N)N)C(=O)N[C@H](CC(N)=O)C(=O)N[C@H](Cc1ccccc1)C(=O)N[C@H](CCSC)C(=O)N[C@H](CCCNC(=N)N)C(N)=O)C(C)C [Peptide 130, Lauryl-rwrdvarnfmr-NH2] (Lauroyl-[dR][dW][dR][dD][dV][dA][dR][dN][dF][dM][dR]-NH2)"
64e ug/mL,>64 µg/mL,64 µg/mL,>64 µg/mL,16 µg/mL,16 µg/mL,64c ug/mL,"CCCCCCCCCCCC(=O)N[C@H](CCCNC(=N)N)C(=O)N[C@H](CO)C(=O)N[C@H](CCCNC(=N)N)C(=O)N[C@H](Cc1c[nH]c2ccccc12)C(=O)N[C@H](CCCNC(=N)N)C(=O)N[C@H](CC(=O)O)C(=O)N[C@@H](C(N)=O)C(C)C [Peptide 120, Lauryl-rsrwrdv-NH2] (Lauroyl-[dR][dS][dR][dW][dR][dD][dV]-NH2)"
8e ug/mL,>64 µg/mL,>64 µg/mL,32 µg/mL,8 µg/mL,16 µg/mL,32c ug/mL,"CCCCCCCCCCCCCCCC(=O)N[C@H](CCCNC(=N)N)C(=O)N[C@H](CO)C(=O)N[C@H](CCCNC(=N)N)C(=O)N[C@H](Cc1c[nH]c2ccccc12)C(=O)N[C@H](CCCNC(=N)N)C(=O)N[C@H](CC(=O)O)C(=O)N[C@@H](C(=O)N[C@H](C)C(=O)N[C@H](CCCNC(=N)N)C(=O)N[C@H](CC(N)=O)C(=O)N[C@H](Cc1ccccc1)C(=O)N[C@H](CCSC)C(=O)N[C@H](CCCNC(=N)N)C(N)=O)C(C)C [Peptide 209, Palmitoyl-rsrwrdvarnfmr-NH2] (Palmitoyl-[dR][dS][dR][dW][dR][dD][dV][dA][dR][dN][dF][dM][dR]-NH2)"
8e ug/mL,4 µg/mL,4 µg/mL,8 µg/mL,1 µg/mL,2 µg/mL,8c ug/mL,"CCCCCCCCCCCC(=O)NCCCC[C@@H](NC(=O)[C@@H](CCCNC(=N)N)NC(=O)[C@@H](CCSC)NC(=O)[C@@H](Cc1ccccc1)NC(=O)[C@@H](CC(N)=O)NC(=O)[C@@H](CCCNC(=N)N)NC(=O)[C@@H](C)NC(=O)[C@H](NC(=O)[C@@H](CC(=O)O)NC(=O)[C@@H](CCCNC(=N)N)NC(=O)[C@@H](Cc1c[nH]c2ccccc12)NC(=O)[C@@H](CCCNC(=N)N)NC(=O)[C@@H](CO)NC(=O)[C@H](N)CCCNC(=N)N)C(C)C)C(N)=O [Peptide 200, H2N-rsrwrdvarnfmrk(Lauryl)-NH2] (H-[dR][dS][dR][dW][dR][dD][dV][dA][dR][dN][dF][dM][dR][dK](Lauroyl)-NH2)"
8e ug/mL,4 µg/mL,8 µg/mL,32 µg/mL,1 µg/mL,8 µg/mL,64c ug/mL,CCCCCCCCCCCC(=O)N[C@H](C(=O)N[C@@H](CCCNC(=N)N)C(=O)N[C@H](C(=O)N[C@@H](C)C(=O)N[C@@H](CCCNC(=N)N)C(=O)N[C@H](C(=O)NCC(=O)N[C@@H](CCCNC(=N)N)C(=O)N[C@@H](CO)C(=O)N[C@@H](CCCNC(=N)N)C(=O)N[C@@H](Cc1c[nH]c2ccccc12)C(=O)N[C@@H](CCCNC(=N)N)C(=O)N[C@@H](CC(=O)O)C(=O)N[C@@H](Cc1c[nH]c2ccccc12)C(=O)N[C@@H](C)C(=O)N[C@@H](CCCNC(=N)N)C(=O)N[C@@H](CC(N)=O)C(=O)N[C@@H](Cc1ccccc1)C(=O)N[C@@H](CCSC)C(=O)N[C@@H](CCCNC(=N)N)C(N)=O)[C@@H](C)O)C(C)C)[C@@H](C)O [Peptide 70] (Lauroyl-TRVARTGRSRWRDWARNFMR-NH2)
